“Also recorded” adds a separate entry of the source. Blank lines part the entries; values can stand above or below the molecule they belong to.
Experiments:
[1] = Phenolic pKa and phenol/phenolate absorbance of fluorophores; type: physicochemical; details: for pKa: phenolic proton of free fluorophore
Method: The pKa of DFHBI was calculated using the presence of the distinct phenol and phenolate absorbance peaks. […] This dramatic reduction in […] would ensure that a majority of fluorophore molecules would now be in the phenolate form at physiological pH.

HEK 293 cells = assay: Non-specific fluorescence of dyes in HEK 293 cells; type: cell-based; details: for non-specific fluorescence in cells: 10 μM, epifluorescent microscope
Method: Previous studies to utilize conditionally fluorescent RNA binding dyes had focused on triphenylmethane scaffold dyes such as malachite green. However, these studies were halted by the discovery that many of these conditionally fluorescent dyes could interact with cellular components causing the cells to nonspecifically fluoresce. To determine whether the fluorophores of the present invention would be nonspecifically fluorescent in cells, HEK 293 cells were incubated with 10 μM DMHBI and visualized using an epifluorescent microscope.

[2] = Fluorescence of free fluorophore (ethanol glass, glycerol viscosity); type: physicochemical
Description: In GFP, the chromophore is held inside the protein β-barrel structure and rigidified by direct interactions with over a dozen amino acid residues (FIG. 1C). This inflexible positioning of the chromophore by the protein is the reason for its large fluorescent quantum yield. Similarly, the synthetic GFP chromophores 4-hydroxybenzilidene-1,2-dimethyl-imidazol-5-one (“HBDI”) is capable of bright fluorescence only when rigidified by solidified solvents (Niwa et al., “Chemical Nature of the Light Emitter of the Aequorea Green Fluorescent Protein,” Proc. Nat'l Acad. Sci. USA 93:13617-13622 (1996), which is hereby incorporated by reference in its entirety). […] As an initial experiment DMHBI was first dissolved in ethanol and frozen in liquid nitrogen to create an ethanol glass matrix.
To more precisely determine the effect of immobilization on DMHBI fluorescence, 10 μM DMHBI in aqueous buffer was prepared and its fluorescence spectrum was measured in increasing concentrations of glycerol. Because glycerol is known to affect the viscosity of aqueous solutions in a predictable manner, the effect of increasing viscosity on DMHBI fluorescence can be readily measured. An increase in fluorescence intensity with increasing concentrations of glycerol was observed (FIG. 2B).
This is in agreement with previously reported data of the fluorescence spectrum of synthetic GFP chromophore, which is incapable of the excited-state proton transfer reaction that is responsible for green emission spectra found in the GFP protein. […] The reason for this is that the phenolic moiety of the chromophore remains protonated at neutral pH and in the context of the original protein. Deprotonation to the phenolate results in an excitation maxima at ˜475 nm.
Additionally, DFHBI was nonfluorescent when administered to HEK 293 cells, proving its utility for methods involving live cells.

[3] = Fluorescence of aptamer-DFHBI complexes; type: biochemical; details: unchanged between unbound and bound fluorophore
Description: The addition of the fluoro groups appeared to cause a slight blue shift in the fluorescence with excitation and emission maxima at 460 nm and 500 nm, respectively (FIG. 12A). […] Thus, further characterization was only carried out on these two brightest clones. […] This increased brightness derived mainly from an increase in the quantum yield from 0.08 for DMHBI-RNA complexes to over 0.6 for DFHBI-RNA complexes. The extinction coefficient for DFHBI remained unchanged between unbound and bound fluorophore: 26,000 M^−1cm^−1.
Equimolar solutions of 24-1-DFHBI complex and eGFP were prepared to measure their relative fluorescence intensity. […] Mg^2+ ion requirement, on the other hand, is much greater for 24-1 and 24-2 than for 13-2 (FIG. 12D). Both 24-1 and 24-2 are optimally fluorescent at 25 mM MgCl2 with only a subtle decrease when the concentration is dropped to 5 mM (the concentration used for SELEX). However, dropping MgCl2 concentration from 5 mM to a more physiological concentration of 0.5 mM results in a 50% drop in fluorescence for both aptamers. Further decreasing the MgCl2 concentration completely abolishes 24-1 fluorescence at ˜0.01 mM, while 24-2 levels out at ˜45% intensity at 0.01 mM MgCl2.

[4] = cited from earlier work; for emission maxima: literature values
[5] = Dissociation constant of aptamer-DMHBI complexes by fluorescence titration; type: binding
Description: The first step in characterizing the interaction between fluorescence-inducing aptamers of DMHBI was to determine their binding affinities. Because binding of the RNA to DMHBI results in fluorescence, the dissociation constant (Kd) was obtained by titrating increasing amounts of DMHBI to a solution of the aptamer. To correct for any increases in DMHBI background fluorescence, measurements of DMHBI alone at the same concentrations were taken and subtracted from the binding data. These measurements were then used to extrapolate RNA-fluorophore dissociation constants. DMHBI bound to both 3-6 and 13-2 with roughly equal dissociation constants of 500 nM (FIG. 5A).

aptamer 13-2 = assay: Quantum yield, extinction coefficient and brightness of DMHBI alone and with aptamer 13-2; type: physicochemical
Method: Lucifer Yellow and Cascade Yellow, two fluorophores with known quantum yields, were used as standards and the relative slope changes in the curve depicting absorbance vs. total fluorescence were compared. Values were calculated for DMHBI alone and DMHBI with aptamer 13-2 to identify the underlying reason for fluorescence increase. […] Quantum yield, however, increased enormously from 0.0006 for DMHBI alone to 0.08 for the aptamer-DMHBI complex—an over 100-fold increase. Total brightness, measured as the product of extinction coefficient and quantum yield, went from 0.008 to 1.23 (150-fold). […] More importantly, the fold-increases in both quantum yield and brightness are more than sufficient for detection of the aptamer-fluorophore complex.

[6] = ATP-dependent fluorescent sensor from aptamer 13-2 with DMHBI; type: biochemical
Description: FIGS. 22A-B illustrate the design of a fluorescent ATP sensor using aptamer 13-2. FIG. 22A illustrates how aptamer 13-2 (nt 4-60 of SEQ ID NO: 3, structure from mFOLD, left) was modified by fusing it to a previously-described ATP-aptamer (see structure on right). An unstable stem was fused from the ATP aptamer to 13-2 at the stem A entry point, generating the sensor of SEQ ID NO: 62. FIG. 22B confirms that the fused aptamer construct can be used as an ATP-dependent fluorescent sensor. In the absence of ATP, there is minimal fluorescence, even in the presence of DMHBI (lower curve). However, after addition of 1 mM ATP, the fluorescence increases nearly 30-fold (upper curve).
The mutagenesis studies described in Example 8 confirmed that stem loop A of aptamer 13-2 (see FIG. 22A) could be mutated as long as a stem-forming sequence was retained. Using the same approach identified in Example 17 (for aptamer 24-1), stem-loop A was used as an entry point for introducing an ATP aptamer along with stem destabilization.

[7] = highly viscous solutions, pH 7.4

absorbance maximum, phenol [1]: 363 nm
absorbance maximum, phenolate [1]: 420 nm
pKa [1]: ~6
fluorescence in ethanol glass and at high glycerol concentrations [2]: robustly fluorescent
fluorescence in non-viscous solutions [2]: negligible fluorescence
extinction coefficient [3]: 26,000 M^−1cm^−1
Molecule: CC1=N/C(=C\c2cc(F)c(O)c(F)c2)C(=O)N1C [DFHBI, 4-(3,5-difluoro-4-hydroxybenzylidene)-1,2-dimethyl-imidazol-5-one]
fluorescence when administered to cells (HEK 293 cells): nonfluorescent

Molecule: CN(C)c1ccc(C(=C2C=CC(=[N+](C)C)C=C2)c2ccccc2)cc1 [malachite green, reference compound]
non-specific fluorescence in cells (HEK 293 cells): intensely fluorescent; also recorded: cells turn fluorescent

pKa [1]: ~10
Molecule: CC1=N/C(=C\c2ccccc2O)C(=O)N1C [o-HBDI, 4-(2-hydroxybenzylidene)-1,2-dimethyl-imidazol-5-one]
emission maxima [4]: 605 nm

Molecule: 4-hydroxybenzylidene-1-methyl-2-penta-1,3-dien-1-yl-imidazolinone [reference compound]
emission maxima [4]: 523 nm

fraction deprotonated ([1]; pH 8): ~50%
Kd ([5]; aptamer not named, read-out: Kd of the complex (RNA-bound DMHBI)): 500 nM
fluorescence in glycerol ([2]; 10 μM in aqueous buffer, 20% glycerol): very limited fluorescence
emission peak [2, 7]: 460 nm
excitation peak [2, 7]: 400 nm
quantum yield (aptamer 13-2; DMHBI alone): 0.0006
total brightness (product of extinction coefficient and quantum yield) (aptamer 13-2; DMHBI alone): 0.008
molar extinction coefficient (aptamer 13-2; DMHBI bound by aptamer 13-2): 15,358 M^−1cm^−1
quantum yield (aptamer 13-2; aptamer-DMHBI complex): 0.08
total brightness (product of extinction coefficient and quantum yield) (aptamer 13-2; aptamer-DMHBI complex): 1.23
increase in quantum yield (aptamer 13-2; complex vs DMHBI alone): over 100 fold
increase in total brightness (aptamer 13-2; complex vs DMHBI alone): 150 fold
molar extinction coefficient (aptamer 13-2; unbound DMHBI): 13,164 M^−1cm^−1
Molecule: COc1cc(/C=C2\N=C(C)N(C)C2=O)cc(OC)c1O [DMHBI, 4-(4-hydroxy-3,5-dimethoxybenzylidene)-1,2-dimethyl-imidazol-5-one]
dissociation τ1/2 ([5]; inferred from Kd assuming diffusion-limited association rates): < 0.1 s
non-specific fluorescence in cells (HEK 293 cells): no increase in background fluorescence; also recorded: No non-specific fluorescence
fluorescence in ethanol glass ([2]; frozen in liquid nitrogen, 77° K): dramatic fluorescent enhancement; also recorded: brilliantly fluorescent
fluorescence in ethanol ([2]; room temperature): nonfluorescent; also recorded: non-fluorescent

B1: DsRed: bright red fluorescent protein from coral (Discosoma spp.) (protein, UniProt Q9U6Y8 1-225, looked up)
Red fluorescent protein …: MRSSKNVIKEFMRFKVRMEGTVNGHEFEIEGEGEGRPYEGHNTVKLKVTKGGPLPFAWDILSPQFQYGSKVYVKHPADIPDYKKLSFPEGFKWERVMNFEDGGVVTVTQDSSLQDGCFIYKVKFIGVNFPSDGPVMQKKTMGWEASTERLYPRDGVLKGEIHKALKLKDGGHYLVEFKSIYMAKKPVQLPGYYYVDSKLDITSHNEDYTIVEQYERTEGRHHLFL
excitation maxima ([4]; literature value): 558 nm
emission maxima [4]: 583 nm

B2: sensor of SEQ ID NO: 62: aptamer 13-2 fused via modified stem A to an ATP-binding aptamer, used with DMHBI (nucleic acid)
chain: CUAUUUCUGGAGGGGCGCUACUGUGUGGGAAGAAACUGUGGCACUUCGGUGCCAGCGUAUGGGUGGUUGGGUGCGGUCGGAGAUAGCUCGAGCAAUGC
modifications: listed as RNA, further chemistry not given here
fluorescence increase after addition of ATP ([6]; 1 mM ATP, DMHBI present): ~30 fold
molar fluorescence intensity relative to 13-2 parent aptamer ([6]; ATP-bound): ~20%

From US10316000B2, “Coupled recognition/detection system for in vivo and in vitro use” (Cornell University, priority 2009, dated 2019)
